How the values were obtained:
CV-1 [1] = assay: Antiviral efficacy measured by a hybrid HIV-l/vaccinia virus infected monkey cell line (HIV- l/vVK-1 infected CV- 1) which produces HIV-1 gag-pol derived polyproteins; type: functional, cell-based, Human immunodeficiency virus 1; conditions: Chlorocebus aethiops
CV-1 [2] = assay: Antiviral efficacy measured by a hybrid HIV-l/vaccinia virus infected monkey cell line (HIV- l/vVK-1 infected CV- 1) which produces HIV-1 gag-pol derived polyproteins at 10 uM concentration; type: functional, Human immunodeficiency virus 1; conditions: Chlorocebus aethiops
[3] = biological target: Human immunodeficiency virus type 1 protease (Human immunodeficiency virus 1, UniProt Q72874); assay: Evaluated for inhibitory activity against HIV-1 protease
Cathepsin E = biological target: T1, Cathepsin E (Homo sapiens, UniProt P14091); assay: Compound was evaluated for aspartyl protease inhibition selectivity relative to Cathepsin E
T1 sequence (P14091 whole entry): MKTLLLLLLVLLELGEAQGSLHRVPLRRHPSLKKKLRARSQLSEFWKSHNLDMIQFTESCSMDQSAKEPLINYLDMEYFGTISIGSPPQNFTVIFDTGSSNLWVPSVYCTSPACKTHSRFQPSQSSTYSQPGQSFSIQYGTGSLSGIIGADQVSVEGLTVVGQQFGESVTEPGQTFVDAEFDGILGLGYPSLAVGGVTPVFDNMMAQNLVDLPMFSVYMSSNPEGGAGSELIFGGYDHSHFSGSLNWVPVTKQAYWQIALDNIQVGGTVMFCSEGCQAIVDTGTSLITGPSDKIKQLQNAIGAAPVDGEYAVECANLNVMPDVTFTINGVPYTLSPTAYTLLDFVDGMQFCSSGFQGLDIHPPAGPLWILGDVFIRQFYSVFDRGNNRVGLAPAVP

Cathepsin D = Cathepsin D (Homo sapiens, UniProt P07339); assay: Compound was evaluated for aspartyl protease inhibition selectivity relative to Cathepsin D
Sequence of Cathepsin D (P07339 65-162 limits assumed): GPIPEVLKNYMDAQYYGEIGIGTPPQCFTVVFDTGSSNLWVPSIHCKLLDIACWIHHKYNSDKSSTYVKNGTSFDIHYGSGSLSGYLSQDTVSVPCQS
Sequence of Cathepsin D (P07339 169-412 limits assumed): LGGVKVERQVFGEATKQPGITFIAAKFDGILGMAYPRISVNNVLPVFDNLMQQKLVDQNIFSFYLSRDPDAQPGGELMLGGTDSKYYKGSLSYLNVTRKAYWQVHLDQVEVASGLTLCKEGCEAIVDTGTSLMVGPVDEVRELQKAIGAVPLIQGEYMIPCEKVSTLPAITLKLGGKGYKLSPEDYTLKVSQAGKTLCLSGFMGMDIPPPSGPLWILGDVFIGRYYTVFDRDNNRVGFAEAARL

Pepsin A = Pepsin A (Sus scrofa, UniProt P00791); assay: Compound was evaluated for aspartyl protease inhibition selectivity relative to pepsin; design: species or system Homo sapiens
Sequence of Pepsin A (P00791 whole entry): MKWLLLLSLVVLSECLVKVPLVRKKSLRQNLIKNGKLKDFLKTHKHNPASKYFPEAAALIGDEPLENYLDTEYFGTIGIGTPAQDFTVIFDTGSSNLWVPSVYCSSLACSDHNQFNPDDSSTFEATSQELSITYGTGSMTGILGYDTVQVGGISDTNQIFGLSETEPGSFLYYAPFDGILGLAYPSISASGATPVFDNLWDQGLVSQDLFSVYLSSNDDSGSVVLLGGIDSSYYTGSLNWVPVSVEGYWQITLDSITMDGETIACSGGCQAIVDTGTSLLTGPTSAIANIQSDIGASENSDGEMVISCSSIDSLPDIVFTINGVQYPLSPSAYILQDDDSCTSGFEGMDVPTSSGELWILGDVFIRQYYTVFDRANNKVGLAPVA

Renin = biological target: T2, Renin (Homo sapiens, UniProt P00797); assay: Compound was evaluated for aspartyl protease inhibition selectivity relative to renin
T2 sequence (P00797 whole entry): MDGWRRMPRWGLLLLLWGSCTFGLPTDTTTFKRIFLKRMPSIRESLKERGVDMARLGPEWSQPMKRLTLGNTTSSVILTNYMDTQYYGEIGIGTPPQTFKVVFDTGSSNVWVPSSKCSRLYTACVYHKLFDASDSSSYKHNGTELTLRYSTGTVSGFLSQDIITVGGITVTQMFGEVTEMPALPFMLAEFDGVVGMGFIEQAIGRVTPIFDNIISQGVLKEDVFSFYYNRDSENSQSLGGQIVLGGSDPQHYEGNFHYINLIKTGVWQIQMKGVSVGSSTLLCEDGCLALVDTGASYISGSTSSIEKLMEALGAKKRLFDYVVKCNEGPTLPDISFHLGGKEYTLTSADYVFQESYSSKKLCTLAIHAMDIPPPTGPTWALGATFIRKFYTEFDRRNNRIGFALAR

| SMILES | IC50 (CV-1 [1]) [nM] | inhibition at 10 µM (CV-1 [2]) [%] | Ki [3] [nM] | Ki (Cathepsin E) [nM] | Ki (Cathepsin D) [nM] | Ki (Pepsin A) [nM] | Ki (Renin) [nM] |
| --- | --- | --- | --- | --- | --- | --- | --- |
| CCC(C)[C@H](NC(=O)[C@@H](C[C@H](O)[C@H](CC1CCCCC1)NC(=O)COc1ccccc1)C(C)C)C(=O)NCc1ccccn1 (some centres undefined) | 3000 | 90 | 61 |  |  |  |  |
| CCC(C)[C@H](NC(=O)[C@@H](C[C@H](O)[C@H](CC1CCCCC1)NC(=O)[C@H](CC(N)=O)NC(=O)c1ccc2ccccc2n1)C(C)C)C(=O)O (some centres undefined) |  | 0 |  |  |  |  |  |
| CCC(C)[C@H](NC(=O)[C@@H](C[C@H](O)[C@H](CC1CCCCC1)NC(=O)OC(C)(C)C)C(C)C)C(=O)NCc1ccccn1 (some centres undefined) | 300 | 100 | 8 | 90 | 100 | 330 | 1200 |
| CC[C@H](C)[C@H](NC(=O)[C@H](C(C)C)[C@@H](O)[C@H](O)[C@H](CC1CCCCC1)NC(=O)[C@H](Cc1c[nH]cn1)NC(=O)COc1cccc2ccccc12)C(=O)NCc1ccccn1 | 200 | 100 | < 1 | 142 | > 1000 | 265 | 2 |
| CCC(C)[C@H](NC(=O)[C@@H](C[C@H](O)[C@H](CC1CCCCC1)NC(=O)[C@H](CC(N)=O)NC(=O)COc1cccc2ccccc12)C(C)C)C(=O)NCc1ccccn1 (some centres undefined) | 300 | 93 | 4 |  |  |  |  |
| CC[C@@H](C)[C@@H](NC(=O)[C@@H](C[C@H](O)[C@H](CC1CCCCC1)NC(C)=O)C(C)C)C(=O)NCc1ccccn1 |  | 22 | > 1000 |  |  |  |  |
| CCC(C)[C@H](NC(=O)[C@@H](C[C@H](O)[C@H](CC1CCCCC1)NC(=O)[C@@H](NC(=O)COc1cccc2ccccc12)C(C)C)C(C)C)C(=O)NCc1ccccn1 (some centres undefined) | 300 | 93 | 61 |  |  |  |  |
| CCC(C)[C@H](NC(=O)[C@@H](C[C@H](O)[C@H](CC1CCCCC1)NC(=O)[C@H](Cc1c[nH]cn1)NC(=O)COc1cccc2ccccc12)C(C)C)C(=O)NCc1ccccn1 (some centres undefined) | 300 | 100 | 5 | 50 | 200 | 290 | 2 |
| CCC(C)[C@H](NC(=O)[C@@H](C[C@H](O)[C@H](CC1CCCCC1)NC(=O)c1ccccn1)C(C)C)C(=O)NCc1ccccn1 (some centres undefined) | 300 | 100 | 8 |  |  |  |  |
| CCC(C)[C@H](NC(=O)[C@@H](C[C@H](O)[C@H](CC1CCCCC1)NC(=O)[C@H](Cc1cn(C)cn1)NC(=O)COc1cccc2ccccc12)C(C)C)C(=O)NCc1ccccn1 (some centres undefined) | 500 | 85 | 30 |  |  |  |  |
| CC[C@H](C)[C@H](NC(=O)[C@@H](C[C@H](O)[C@H](CC1CCCCC1)NC(C)=O)C(C)C)C(=O)NCc1cccc[n+]1[O-] |  | 20 | 16 |  |  |  |  |
| CCCCCC(=O)N[C@@H](CC1CCCCC1)[C@@H](O)C[C@H](C(=O)N[C@H](C(=O)NCc1ccccn1)C(C)CC)C(C)C (some centres undefined) | 3000 | 67 | 47 |  |  |  |  |
| CCC(C)[C@H](NC(=O)[C@@H](C[C@H](O)[C@H](CC1CCCCC1)NC(=O)[C@H](Cc1cnc[nH]1)NC(=O)OC(C)(C)C)C(C)C)C(=O)NCc1ccccn1 (some centres undefined) | 10000 | 53 | 10 |  |  |  |  |
| CC(C)[C@H](C[C@H](O)[C@H](CC1CCCCC1)NC(=O)C(CC(N)=O)NC(=O)c1ccc2ccccc2n1)C(=O)NCC(C)(C)C (some centres undefined) | 300 | 70 | 14 |  |  |  |  |
| CC[C@H](C)[C@H](NC(=O)[C@@H](C[C@H](O)[C@@H](N)CC1CCCCC1)C(C)C)C(=O)NCc1ccccn1 |  | 0 | 800 |  |  |  |  |
| CCC(C)[C@H](NC(=O)[C@@H](C[C@H](O)[C@H](CC1CCCCC1)NC(=O)[C@H](CC(N)=O)NC(=O)c1ccc2ccccc2n1)C(C)C)C(=O)NCc1ccccn1 (some centres undefined) | 300 | 97 | 9 | 3 | 2 | 12 | 212 |
| CCC(C)[C@H](NC(=O)[C@@H](C[C@H](O)[C@H](CC1CCCCC1)NC(=O)CC(C)(C)C)C(C)C)C(=O)NCc1ccccn1 (some centres undefined) | 3000 | 75 | 75 |  |  |  |  |
| CC[C@H](C)[C@H](NC(=O)[C@@H](C[C@H](O)[C@H](CC1CCCCC1)NC(C)=O)C(C)C)C(=O)NCc1ccccn1 |  | 50 | 8 |  |  |  |  |
